# Key:
# AXL kinase = molecular target: T1, AXL kinase (Homo sapiens, UniProt P30530); assay: Inhibitory activity of compound against AXL kinase (HTRF KinEASE); format: biochemical; conditions: AXL enzyme (Carna, 08-107), ATP 15 μM; "<" means below detection limit of the test
# T1 construct: purchased Carna 08-107
# T1 sequence (P30530 473-894 limits assumed): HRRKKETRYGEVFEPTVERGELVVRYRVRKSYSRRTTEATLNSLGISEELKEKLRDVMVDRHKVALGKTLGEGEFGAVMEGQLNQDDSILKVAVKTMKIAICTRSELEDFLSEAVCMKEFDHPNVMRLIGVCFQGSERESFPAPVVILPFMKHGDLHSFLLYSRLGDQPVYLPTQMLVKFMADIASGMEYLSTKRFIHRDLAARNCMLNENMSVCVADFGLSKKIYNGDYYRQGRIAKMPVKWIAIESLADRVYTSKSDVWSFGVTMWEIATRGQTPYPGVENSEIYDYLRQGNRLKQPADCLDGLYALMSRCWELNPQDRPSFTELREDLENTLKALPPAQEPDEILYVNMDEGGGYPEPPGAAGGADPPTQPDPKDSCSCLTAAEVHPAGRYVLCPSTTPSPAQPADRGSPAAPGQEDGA
# Method: a) AXL enzyme (Carna, 08-107) configuration and addition: a 1×enzyme buffer (200 μL of Enzymatic buffer kinase 5×, 10 μL of 500 mM MgCl2, 10 μL of 100 mM DTT and 6.26 μL of 2500 nM SEB are added with […] of H2O, and prepared into 1 ml of 1× enzyme buffer) is used. AXL enzyme is diluted from 33.33 ng/uL to 0.027 ng/μL (1.67×, final conc.=0.016 ng/uL), a BioTek (MultiFlo FX) automatic liquid dispenser is used, and 6 μL of enzyme solution having a 1.67-fold final concentration is added respectively to compound wells and positive control wells; and 6 μL of 1×Enzymatic buffer is added to negative control wells.
# b) Compound preparation and addition: the compounds and positive drugs prepared in the examples are diluted from 10 mM to 100 μM by DMSO, and titrated with a compound titrator (Tecan, D300e). The titrated solution is automatically sprayed by the titrator to each well to reach a required concentration, wherein the first concentration is 1 μM, and after ½ log dilution, a total of 8 concentrations are obtained. The resulting mixture is centrifuged at 2500 rpm for 30 s and incubated at room temperature for 15 min.
# c) Preparation and addition of ATP and substrate: ATP (Sigma, A7699) is diluted with 1× enzyme buffer from 10 mM to 75 μM (5×), and the final concentration is 15 μM; the substrate TK Substrate 3-biotin (Cisbio, 61TK0BLC) is diluted with 1× enzyme buffer from 500 μM to 5 μM (5×), andthe final concentration is […]; ATP and the substrate are mixed in equal volume to obtain a mixed solution; the mixed solution is added to each well at 4 μL by using a BioTek automatic dispenser; centrifuged at 2500 rpm for 30 s, and reacted at 25° C. for 45 min.
# d) Pirparation and addition of detection reagent: Streptavidin-XL665 (Cisbio, 610SAXLG) is diluted with HTRF KinEASE detection buffer (cisbio) from 16.67 μM to 250 nM (4×), and the final concentration is 62.5 nM; TK Antibody-Cryptate (Cisbio) is diluted with HTRF KinEASE detection buffer (cisbio) from 100× to 5×, and the final concentration is 1×; XL665 and Antibody are mixed in equal volume; the mixed solution is added to each well at 10 μL by using the BioTek automatic dispenser, centrifuged at 2500 rpm for 30 s, and reacted at 25° C. for 1 h. After the reaction is completed, the resulting product is detected by a multi-function plate reader HTR1p
# GraphPad Prism 5 software log (inhibitor) vs. response-Variable slope is used to fit a dose-response curve to obtain the IC50 value of the compound to the inhibition of AXL kinase.
# The calculation formula of the inhibition rate is as follows: […]
# [1] = system: MV-4-11 (human myeloid monocytic leukemia cell line); assay: Proliferation inhibition activity of compounds to MV-4-11 cells (CellTiter-Glo); format: cell-based; conditions: MV4-11 cells, 72 h dosing
# Method: MV-4-11 (human myeloid monocytic leukemia cell line, culture medium: JIMDM+10% fetal bovine serum) is purchased from Cobioer Biosciences Co., Ltd and cultured in a 5% C02 incubator at 37° C. The cells in a logarithmic growth phase are plated in a 96-well plate at cell densities of 8000 cells/well, 6000 cells/well, 2000 cells/well, 2000 cells/well and 3000 cells/well, and a blank control group is set at the same time.
# A compound to be tested and the positive drug are dissolved in dimethyl sulfoxide to prepare a 10 mM stock solution, which is then stored in −80° C. refrigerator for long-time storage. After the cells are plated for 24 h, the 10 mM compound stock solution is diluted with dimethyl sulfoxide to obtain a working solution having a 200-fold concentration (the highest concentration is 200 or 2000 μM, a 3-fold gradient, a total of 10 concentrations), and 3 μL of the working solution of each concentration is added to 197 μL of complete medium, and diluted into a working solution of 3-fold concentration. 50 μL of the working solution is then taken and added to a 100 μL cell culture medium (a final concentration of dimethyl sulfoxide is 0.5%, v/v), and two complex holes are set for each concentration. After 72 h of dosing treatment, 50 μl of CellTiter-Glo® (purchased from Promega) is added to each well. Fluorescence signals are measured on Envision (PerkinElmer) according to an operating procedure of the specification. GraphPad Prism 5 software log(inhibitor) vs. response-Variable slope is used to fit a dose-response curve, so as to obtain the IC50 value of the compound to the inhibition of cell-proliferation. The calculation formulation of the inhibition rate is as follows: […]
# wherein: signal value of subject: a mean fluorescence signal of cell+medium+compound group; signal value of blank group: a mean fluorescence signal of medium group (containing 0.5% DMSO); signal value of negative control group: a mean fluorescence signal of cell+medium group (containing 0.5% DMSO).
Compound,IC50 (AXL kinase) [nM],IC50 [1] [nM]
"Cc1c(F)ccc(Nc2nc(Nc3ccc4c(c3)CC[C@@H](N3CCCC3)CC4)ncc2Cl)c1P(C)(C)=O [Example 135, (S)-(6-((5-chloro-2-((7-(pyrrolidin-1-yl)-6,7,8,9-tetrahydro-5H-benzo[7]annulen-2-yl)amino)pyrimidin-4-yl)amino)-3-fluoro-2-methylphenyl)dimethyl phosphine oxide]",1.35,4.23
"CP(C)(=O)c1cc(-n2cnnn2)ccc1Nc1nc(Nc2ccc3c(c2)CC[C@@H](N2CCCC2)CC3)ncc1Cl [Example 109, (S)-(2-((5-chloro-2-((7-(pyrrolidin-1-yl)-6,7,8,9-tetrahydro-5H-benzo[7]annulen-2-yl)amino)pyrimidin-4-yl)amino)-5-(1H-tetrazol-1-yl)phenyl)dimethyl phosphine oxide]",,8.56
"CP(C)(=O)c1cc(OC(F)(F)F)ccc1Nc1nc(Nc2ccc3c(c2)CC[C@@H](N2CCCC2)CC3)ncc1Cl [Example 76, (S)-(2-((5-chloro-2-((7-(pyrrolidin-1-yl)-6,7,8,9-tetrahydro-5H-benzo[7]annulen-2-yl)amino)pyrimidin-4-yl)amino)-5-(trifluoromethoxyl)phenyl)dimethyl phosphine oxide]",,7.98
"CP(C)(=O)c1cc(OC(F)F)ccc1Nc1nc(Nc2ccc3c(c2)CC[C@@H](N2CCCC2)CC3)ncc1Cl [Example 75, (S)-(2-((5-chloro-2-((7-(pyrrolidin-1-yl)-6,7,8,9-tetrahydro-5H-benzo[7]annulen-2-yl)amino)pyrimidin-4-yl)amino)-5-(difluoromethoxyl)phenyl)dimethyl phosphine oxide]",,2.93
"Cc1ccc(Nc2nc(Nc3ccc4c(c3)CC[C@@H](N3CCCC3)CC4)ncc2Cl)c(P(C)(C)=O)n1 [Example 81, (S)-(3-((5-chloro-2-((7-(pyrrolidin-1-yl)-6,7,8,9-tetrahydro-5H-benzo[7]annulen-2-yl)amino)pyrimidin-4-yl)amino)-6-methylpyridin-2-yl)dimethyl phosphine oxide]",,3.13
"CNC(=O)c1c(Nc2nc(Nc3ccc4c(c3)CC[C@@H](N3CCCC3)CC4)ncc2Cl)cc[nH]c1=O [Example 42, (S)-4-((5-chloro-2-((7-(pyrrolidin-1-yl)-6,7,8,9-tetrahydro-5H-benzo[7]annulen-2-yl)amino)pyrimidin-4-yl)amino)-N-methyl-2-oxo-1,2-dihydropyridine-3-carboxamide]",14.6,
"N#CCc1cccc(Nc2nc(Nc3ccc4c(c3)CC[C@@H](N3CCCC3)CC4)ncc2Cl)c1 [Example 11, (S)-2-(3-((5-chloro-2-((7-(pyrrolidin-1-yl)-6,7,8,9-tetrahydro-5H-benzo[7]annulen-2-yl)amino)pyrimidin-4-yl)amino)phenyl)acetonitrile]",8.18,
"Cc1cccc(Nc2nc(Nc3ccc4c(c3)CC[C@@H](N3CCCC3)CC4)ncc2Cl)c1P(C)(C)=O [Example 113, (S)-(2-((5-chloro-2-((7-(pyrrolidin-1-yl)-6,7,8,9-tetrahydro-5H-benzo[7]annulen-2-yl)amino)pyrimidin-4-yl)amino)-6-methylphenyl) dimethyl phosphine oxide]",1.28,
"CNC(=O)c1ncccc1Nc1nc(Nc2ccc3c(c2)CC[C@@H](N2CCCC2)CC3)ncc1Cl [Example 33, (S)-3-((5-chloro-2-((7-(pyrrolidin-1-yl)-6,7,8,9-tetrahydro-5H-benzo[7]annulen-2-yl)amino)pyrimidin-4-yl)amino)-N-methylpicolinamide]",5.15,
CC(C)Oc1ccc(Nc2nc(Nc3ccc4c(c3)CC[C@@H](N3CCCC3)CC4)ncc2Cl)c(P(C)(C)=O)c1 [Example 114],2.03,
"CNC(=O)c1c(Nc2nc(Nc3ccc4c(c3)CC[C@@H](N3CCCC3)CC4)ncc2Cl)ccnc1OC [Example 44, (S)-4-((5-chloro-2-((7-(pyrrolidin-1-yl)-6,7,8,9-tetrahydro-5H-benzo[7]annulen-2-yl)amino)pyrimidin-4-yl)amino)-2-methoxyl-N-methylnicotinamide]",1.47,
"[2H]C([2H])([2H])P(=O)(c1ccccc1Nc1nc(Nc2ccc3c(c2)CC[C@@H](N2CCCC2)CC3)ncc1Cl)C([2H])([2H])[2H] [Example 56, (S)-(2-((5-chloro-2-((7-(pyrrolidin-1-yl)-6,7,8,9-tetrahydro-5H-benzo[7]annulen-2-yl)amino)pyrimidin-4-yl)amino)phenyl)bis(methyl-d3) phosphine oxide]",2.04,
"CNC(=O)c1ncsc1Nc1nc(Nc2ccc3c(c2)CC[C@@H](N2CCCC2)CC3)ncc1Cl [Example 26, (S)-5-((5-chloro-2-((7-(pyrrolidin-1-yl)-6,7,8,9-tetrahydro-5H-benzo[7]annulen-2-yl)amino)pyrimidin-4-yl)amino)-N-methylthiazole-4-carboxamide]",7.21,
"CP(C)(=O)c1cc(OC2CC2)ccc1Nc1nc(Nc2ccc3c(c2)CC[C@@H](N2CCCC2)CC3)ncc1Cl [Example 128, (S)-(2-((5-chloro-2-((7-(pyrrolidin-1-yl)-6,7,8,9-tetrahydro-5H-benzo[7]annulen-2-yl)amino)pyrimidin-4-yl)amino)-5-cyclopropoxyphenyl)dimethyl phosphine oxide]",1.82,
"Cc1ccc(P(C)(C)=O)c(Nc2nc(Nc3ccc4c(c3)CC[C@@H](N3CCCC3)CC4)ncc2Cl)c1 [Example 130, (S)-(2-((5-chloro-2-((7-(pyrrolidin-1-yl)-6,7,8,9-tetrahydro-5H-benzo[7]annulen-2-yl)amino)pyrimidin-4-yl)amino)-4-methylphenyl)dimethyl phosphine oxide]",12.3,
"CNC(=O)c1ccc(Nc2nc(Nc3ccc4c(c3)CC[C@@H](N3CCCC3)CC4)ncc2Cl)c(P(C)(C)=O)c1 [Example 77, (S)-4-((5-chloro-2-((7-(pyrrolidin-1-yl)-6,7,8,9-tetrahydro-5H-benzo[7]annulen-2-yl)amino)pyrimidin-4-yl)amino)-3-(dimethylphosphoryl)-N-methylbenzamide]",,10.1
